Data published in US11135445B2, “Antimicrobial photodynamic inactivation procedure and system” (The General Hospital Corporation, priority 2014, dated 2021).

How the values were obtained:
S. aureus [1] = assay: MB-mediated PDI in vitro with/without KI; assay type: cell-based, Staphylococcus aureus (NCTC 8325); settings: without light
Protocol: (§1) 2) Staphylococcus aureus (NCTC 8325) and Escherichia coli K12 (ATCC 33780) were chosen as representative Gram (+) and Gram (−) bacteria respectively, for in vitro studies. A colony of bacteria was suspended in 25 ml of brain heart infusion (BHI) broth (Becton, Dickinson, and Company, Franklin Lakes, N.J.) and grown overnight in a shaker incubator (New Brunswick Scientific, Edison, N.J.) at 120 rpm in aerobic condition at 37° C. An aliquot of 1 ml from overnight suspension was refreshed in fresh BHI for 2 hours at 37° C. to mid-log phase. Cell concentration was estimated by measuring the optical density (OD) at 600 nm [OD of 0.8=10^8 colony forming units (CFU) cells/mL]. Bacterial suspension was centrifuged, washed and re-suspended in PBS to arrest microbial growth, and used (10^8 CFU) for the in vitro or in vivo experiments.
(§2) In vitro PDI studies were carried with S. aureus and with E. coli. […] An aliquot of 100 ul was used as dark control from each sample, another (100 ul) was irradiated with 5 J/cm^2 dose of light (660 nm light) and then placed in a new 96 well plate. The aliquots were serially diluted 10-fold in PBS to give dilutions of 10^1 to 10^5 times in addition to the original concentration. From each dilution 10 microleter aliquots were seeded horizontally on BHI agar. […] Each experiment was performed at least three times.

E. coli [2] = assay: MB-mediated PDI in vitro with/without KI; assay type: cell-based, Escherichia coli K12 (ATCC 33780); settings: without light
Protocol: as §1, §2

S. aureus [3] = assay: Bacteria added after completion of light delivery (MB); assay type: cell-based, Staphylococcus aureus; settings: solution irradiated 5 J/cm^2, incubation 5-30 minutes
Protocol: (§3) To verify if long-lived species such as molecular iodine (I2) or hypoiodous acid (HOI) could be responsible for increased bacterial killing we added bacteria after completion of light delivery.
(§4) We irradiated with 5 J/cm^2 the solutions containing MB or MB+KI to generate the iodine species observed in the spectra described above. Since […] is a stable molecule, and even HOI is reasonably stable with a measurable half-life, by incubating the cells in a solution that could contain photochemically produced bactericidal concentrations of I2 or HOI, we expected to observe bacterial killing. We added bacterial cells and we evaluated the survival fraction of bacteria in an incubation time range between 5 and 30 minutes.

E. coli [4] = assay: as above; assay type: cell-based, Escherichia coli; settings: solution irradiated 5 J/cm^2, incubation 5-30 minutes
Protocol: as §3, §4

MRSA = assay: In vivo PDI of burn infected with bioluminescent MRSA; parameters: species or system murine
Excerpt: In another related embodiment, the implementation of invention as discussed in Example 1 was extended to in vivo studies in a murine infection model of burn and carried out with the use of bioluminescent MRSA and in vivo imaging. The goal here was to verify the increase of the efficacy of PDI-process of bacterial killing by adding KI to MB in an in vivo infection model.
Aggregately, FIGS. 17A through 17E represent a set of 5 representative bioluminescence image time courses from the burn (each time course from a single mouse in each of the 5 groups) infected with MRSA. […] The amount of light required to eradicate bacteria from the wound was much less when the bacteria treated with the (MB+KI) solution was irradiated than when MB alone was used to pre-treat bacteria prior to irradiation.

Structure (SMILES): CN(C)c1ccc2nc3ccc(=[N+](C)C)cc-3sc2c1 [MB, Methylene blue]
- dark toxicity (S. aureus [1]): lack of killing without light
- dark toxicity (E. coli [2]): lack of killing without light
- killing of bacteria added after irradiation of the solution (S. aureus [3]): did not observe any bacterial killing
- killing of bacteria added after irradiation of the solution (E. coli [4]): did not observe any bacterial killing
- bacterial bioluminescence during PDI (MRSA; 50 μM MB, with or without 10 mM KI, 660 nm up to 150 J/cm^2): light dose-dependent reduction
- decrease in bacterial bioluminescence (MRSA; 660 nm light, n=6): around 2 log unit
- bacterial re-growth / recurrence after PDI (MRSA; follow-up over days after PDI): not effective to prevent recurrence
